Measured values: ChEMBL document CHEMBL1201862, “PubChem BioAssay data set” (2004)
Calls of active or inactive are those of the source.

Assays:
Estrogen receptor = biological target: T1, Estrogen receptor (Homo sapiens, UniProt P03372);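 note: potency for inhibiting coactivator peptide recruitment to the receptor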
T1 sequence (P03372 whole entry): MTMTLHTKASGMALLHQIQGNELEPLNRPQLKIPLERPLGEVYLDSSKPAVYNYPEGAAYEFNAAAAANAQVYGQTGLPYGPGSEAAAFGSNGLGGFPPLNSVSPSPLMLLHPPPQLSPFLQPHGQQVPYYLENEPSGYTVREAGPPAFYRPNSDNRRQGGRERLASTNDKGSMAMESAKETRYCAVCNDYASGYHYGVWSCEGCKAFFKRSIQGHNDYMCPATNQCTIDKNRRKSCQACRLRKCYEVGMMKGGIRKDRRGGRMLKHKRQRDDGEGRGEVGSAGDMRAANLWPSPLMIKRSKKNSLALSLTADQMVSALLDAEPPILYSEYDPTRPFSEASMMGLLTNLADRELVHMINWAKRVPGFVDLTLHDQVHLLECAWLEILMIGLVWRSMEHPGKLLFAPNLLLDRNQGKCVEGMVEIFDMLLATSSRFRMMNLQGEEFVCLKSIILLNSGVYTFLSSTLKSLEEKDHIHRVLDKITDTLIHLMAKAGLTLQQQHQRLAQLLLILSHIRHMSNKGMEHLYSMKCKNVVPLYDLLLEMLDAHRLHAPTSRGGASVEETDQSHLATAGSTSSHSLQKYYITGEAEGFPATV

[1] = biological target: T2, Small ubiquitin-related modifier 1 (Homo sapiens, UniProt P63165); test: SUMO1 protein-protein binding blockers, potency – biochemical, FRET, dose response (AID 624383); type: functional; conditions: read-out: IC50_Mean
T2 sequence (P63165 whole entry): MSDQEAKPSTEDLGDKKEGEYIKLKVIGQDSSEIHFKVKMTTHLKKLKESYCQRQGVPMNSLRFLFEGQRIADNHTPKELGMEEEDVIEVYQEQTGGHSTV

[2] = biological target: T2, Small ubiquitin-related modifier 1; test: SUMO1 protein interaction blockers, potency – biochemical, fluorescence polarization, uHTS hits, dose response (AID 624382); type: functional; conditions: read-out: IC50_Mean
[3] = biological target: T3, Corticotropin-releasing factor receptor 2/Corticotropin-releasing factor-binding protein (Homo sapiens, UniProt P24387+Q13324); test: activators of CRF receptor 2 with binding protein – uHTS hits, confirmation (AID 602473); type: functional; conditions: read-out: EC50_Mean
T3 sequence (Q13324 whole entry): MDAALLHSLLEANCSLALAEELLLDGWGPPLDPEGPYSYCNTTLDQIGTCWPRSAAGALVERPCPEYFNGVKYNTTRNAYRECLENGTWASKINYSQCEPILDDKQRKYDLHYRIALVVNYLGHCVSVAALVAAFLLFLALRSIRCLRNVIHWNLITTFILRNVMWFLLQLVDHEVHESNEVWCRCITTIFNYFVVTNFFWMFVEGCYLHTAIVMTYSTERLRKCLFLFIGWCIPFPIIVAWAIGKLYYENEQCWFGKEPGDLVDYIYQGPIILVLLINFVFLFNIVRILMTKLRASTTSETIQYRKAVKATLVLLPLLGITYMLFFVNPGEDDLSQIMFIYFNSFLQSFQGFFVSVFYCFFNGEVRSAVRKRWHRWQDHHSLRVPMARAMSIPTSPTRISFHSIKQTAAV
T3 sequence (P24387 whole entry): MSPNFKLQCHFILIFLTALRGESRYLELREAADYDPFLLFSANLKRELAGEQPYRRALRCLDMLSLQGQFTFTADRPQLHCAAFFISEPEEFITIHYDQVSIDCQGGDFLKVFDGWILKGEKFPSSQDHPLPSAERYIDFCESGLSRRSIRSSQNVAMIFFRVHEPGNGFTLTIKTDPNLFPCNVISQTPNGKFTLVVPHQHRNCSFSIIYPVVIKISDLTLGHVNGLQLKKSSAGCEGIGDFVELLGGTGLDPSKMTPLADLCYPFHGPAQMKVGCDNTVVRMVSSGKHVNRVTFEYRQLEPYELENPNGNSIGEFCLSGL

[4] = blockers of CRF-binding protein–CRF-R2 complex – cell-based, uHTS hits, 384-well, dose response (AID 651639); type: functional, Homo sapiens; conditions: read-out: IC50_Mean
[5] = biological target: T3, Corticotropin-releasing factor receptor 2/Corticotropin-releasing factor-binding protein; test: Dose Response confirmation of uHTS hits for small molecule antagonists of the CRF-binding protein and CRF-R2 receptor complex.; type: functional; conditions: read-out: IC50_Mean

SMILES | IC50 (Estrogen receptor) | IC50 [1] | IC50 [2] | EC50 [3] | IC50 [4] | IC50 [5]
Cc1ccc(-n2nnnc2SCC(=O)Nc2ccc3c(c2)COC3=O)cc1C | 27.1 µM (active) | 8.2 µM (active) | > 66.6 µM (inactive) |  |  | 
Cc1cc(C)cc(N(C(=O)c2nsc(Cl)c2Cl)C(C(=O)NC2CCCC2)c2ccc(O)cc2)c1 (stereo unspecified) |  |  |  | > 53 µM (inactive) | > 20 µM (inactive) | 6.02 µM (active)
